{"source": "patent US5296480A", "about": "“Angiotensin II receptor blocking 2,3,6-substituted 5,6,7,8-tetra-hydro-pyrido[4,3]pyrimidin-4(3H)-ones” (American Cyanamid Company, priority 1993, dated 1994)", "target": "T1, Angiotensin II Receptor (Bos taurus, UniProt P25104)", "T1 construct": "added in 20 ul to wells before the introduction of tissue membranes; from tissue; host or cells: microsomal membranes of an unnamed tissue", "T1 sequence (P25104 1-359)": "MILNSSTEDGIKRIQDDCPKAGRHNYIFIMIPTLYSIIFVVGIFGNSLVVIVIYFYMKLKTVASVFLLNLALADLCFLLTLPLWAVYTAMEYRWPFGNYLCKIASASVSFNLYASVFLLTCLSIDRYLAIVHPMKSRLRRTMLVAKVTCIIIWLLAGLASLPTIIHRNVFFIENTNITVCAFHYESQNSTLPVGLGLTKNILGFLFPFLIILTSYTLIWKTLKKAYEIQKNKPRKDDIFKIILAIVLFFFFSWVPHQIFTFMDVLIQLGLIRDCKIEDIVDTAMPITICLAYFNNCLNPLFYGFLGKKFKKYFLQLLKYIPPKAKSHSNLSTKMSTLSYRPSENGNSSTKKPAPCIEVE", "assay": "Receptor Binding Assay: displacement of [^125 I](Sar^1,Ile^8)AngII from microsomal membranes", "settings": "pH 7.4, 60 min, room temperature", "experimental": "Binding of [^125 I](Sar^1, Ile^8)AngII\nThe binding of [^125 I](Sar^1,Ile^8)AngII to microsomal membranes is initiated by the addition of reconstituted membranes (1:10 vols.) in freshly made 50.0 mMTris.HCl buffer, pH 7.4 containing 0.25% heat inactivated bovine serum albumin (BSA): 80 ul membrane protein (10 to 20 ug/assay) to wells already containing 100 ul of incubation buffer (as described above) and 20 ul [^125 I](Sar^1,Ile^8)AngII (Specific Activity, 2200 Ci/mmole). Non-specific binding is measured in the presence of 1.0 uM unlabeled (Sar^1,Ile^8 )AngII, added in 20 ul volume. Specific binding for [^125 I](Sar^1,Ile^8) AngII is greater than 90%. In competition studies, experimental compounds are diluted in dimethylsulfoxide (DMSO) and added in 20 ul to wells before the introduction of tissue membranes. This concentration of DMSO is found to have no negative effects on the binding of [^125 I](Sar^1,Ile^8) AngII to the membranes. Assays are performed in triplicate. […] Presoaking the filter sheet in 0.1% polyethylenemine in normal saline (PEI/Saline) greatly reduces the radioactivity retained by the filter blanks. […] The filters are removed from the filter grid and counted in a Parkard® Cobra Gamma Counter for 1 min. […] The binding data are analyzed by the non-linear interactive \"LUNDON-1\" program (LUNDON SOFTWARE Inc., Cleveland, Ohio U.S.A.). […]", "note": "pIC50: −log10 of the molar value.", "data": [{"smiles": "CCCCc1nc2c(c(=O)n1Cc1ccc(-c3ccccc3-c3nn[nH]n3)cc1)CN(C(=O)c1cccnc1)CC2", "note": "[Example 10]", "values": [{"measurement": "pIC50", "value": 7.29}]}]}
